# Assay results taken from ChEMBL document CHEMBL1130359, “In vivo immunosuppressive activity of some cyclolignans” (Bioorg Med Chem Lett, 1997).
# Legend:
# Mus musculus [1] = assay: Tested in vivo for immunosuppressive activity in mouse using allogenic skin grafting technique(SG); weight at a dose of 15 mg/kg; format: functional
# Mus musculus [2] = assay: Tested in vivo for immunosuppressive activity in mouse using graft vs. Host rejection technique(GVHR); spleen weight normalized to D8 body weight at a dose of 15.0 mg/kg; format: functional
# Mus musculus [3] = assay: Tested in vivo for immunosuppressive activity in mouse using graft vs. Host rejection technique(GVHR); % suppression at a dose of 1.5 mg/kg; format: functional
# Mus musculus [4] = assay: Tested in vivo for immunosuppressive activity in mouse using graft vs. Host rejection technique(GVHR); weight change at a dose of 0.15 mg/kg; format: functional
# Mus musculus [5] = assay: Tested in vivo for immunosuppressive activity in mouse using graft vs. Host rejection technique(GVHR); % suppression at a dose of 15.0 mg/kg.; format: functional
# Mus musculus [6] = assay: Tested in vivo for immunosuppressive activity in mouse using graft vs. Host rejection technique(GVHR); body weight at a dose of 0.15 mg/kg.; format: functional
# Mus musculus [7] = assay: Tested in vivo for immunosuppressive activity in mouse using allogenic skin grafting technique(SG); mean graft survival at a dose of 0.15 mg/kg; format: functional
# [8] = Tested in vitro for cytotoxicity against […](LcV) in cells; format: functional
# Mus musculus [9] = assay: Tested in vivo for immunosuppressive activity in mouse using graft vs. Host rejection technique(GVHR); weight at a dose of 15 mg/kg; format: functional
# Mus musculus [10] = assay: Tested in vivo for immunosuppressive activity in mouse using graft vs. Host rejection technique(GVHR); spleen index at a dose of 0.15 mg/kg; format: functional
# Mus musculus [11] = assay: Tested in vivo for immunosuppressive activity in mouse using allogenic skin grafting technique(SG); mean graft survival at a dose of 1.5 mg/kg; format: functional
# Mus musculus [12] = assay: Tested in vivo for immunosuppressive activity in mouse using graft vs. Host rejection technique(GVHR); spleen weight normalized to D8 body weight at a dose of 0.15 mg/kg; format: functional
# Mus musculus [13] = assay: Tested in vivo for immunosuppressive activity in mouse using graft vs. Host rejection technique(GVHR); spleen weight normalized to D8 body weight at a dose of 1.5 mg/kg; format: functional
# [14] = Non-cytotoxic IMS activity (ratio LcV/MLR) was determined; format: functional
# Mus musculus [15] = assay: Tested in vivo for immunosuppressive activity in mouse using allogenic skin grafting technique(SG); graft survival relative to cyclophosphamide at a dose of 0.15 mg/kg; format: functional
# Mus musculus [16] = assay: Tested in vivo for immunosuppressive activity in mouse using allogenic skin grafting technique(SG); weight lost at a dose of 1.50 mg/kg; format: functional; details: dose 1.5 mg/kg
# Mus musculus [17] = assay: Tested in vivo for immunosuppressive activity in mouse using allogenic skin grafting technique(SG); graft survival relative to cyclophosphamide at a dose of 1.5 mg/kg; format: functional
# Mus musculus [18] = assay: Tested in vivo for immunosuppressive activity in mouse using allogenic skin grafting technique(SG); graft survival relative to cyclophosphamide at a dose of 15.0 mg/kg; format: functional
# Mus musculus [19] = assay: Tested in vivo for immunosuppressive activity in mouse using allogenic skin grafting technique(SG); weight lost at a dose of 0.15 mg/kg; format: functional
# Mus musculus [20] = assay: Tested in vivo for immunosuppressive activity in mouse using graft vs. Host rejection technique(GVHR); body weight at a dose of 15.0 mg/kg; format: functional
# Mus musculus [21] = assay: Tested in vivo for immunosuppressive activity in mouse using graft vs. Host rejection technique(GVHR); body weight at a dose of 1.5 mg/kg; format: functional
# Mus musculus [22] = assay: Tested in vivo for immunosuppressive activity in mouse using graft vs. Host rejection technique(GVHR);% suppression at a dose of 0.15 mg/kg; format: functional
# Mus musculus [23] = assay: Tested in vivo for immunosuppressive activity in mouse using allogenic skin grafting technique(SG); weight at a dose of 1.50 mg/kg; format: functional; details: dose 1.5 mg/kg
# Mus musculus [24] = assay: Tested in vivo for immunosuppressive activity in mouse using graft vs. Host rejection technique(GVHR); weight change at a dose of 1.5 mg/kg.; format: functional
# Mus musculus [25] = organism: Mus musculus; assay: Tested for immunosuppressive activity in mouse using allogenic MLR method; format: functional, organism-based
# Mus musculus [26] = assay: Tested in vivo for immunosuppressive activity in mouse using graft vs. Host rejection technique(GVHR); spleen index at a dose of 15.0 mg/kg; format: functional
# Mus musculus [27] = assay: Tested in vivo for immunosuppressive activity in mouse using graft vs. Host rejection technique(GVHR); weight change at a dose of 15.0 mg/kg; format: functional
# Mus musculus [28] = assay: Tested in vivo for immunosuppressive activity in mouse using graft vs. Host rejection technique(GVHR); spleen index at a dose of 1.5 mg/kg; format: functional
# Mus musculus [29] = assay: Tested in vivo for immunosuppressive activity in mouse using allogenic skin grafting technique(SG); weight at a dose of 0.15 mg/kg; format: functional
# Mus musculus [30] = assay: Tested in vivo for immunosuppressive activity in mouse using allogenic skin grafting technique(SG); mean graft survival at a dose of 15.0 mg/kg.; format: functional
compound,measurement,setting,value
"COc1cc([C@@H]2c3cc(O)c(O)cc3[C@H](O)[C@H]3COC(=O)[C@H]23)cc(OC)c1OC [6,7-O,O-DEMETHYLENEPODOPHYLLOTOXIN]",Body weight,Mus musculus [1],1.6 g
same,Spleen weight,Mus musculus [2],5.75 g
same,Activity,Mus musculus [3],85%
same,Weight change,Mus musculus [4],-1.8%
same,Activity,Mus musculus [5],44%
same,Body weight,Mus musculus [6],16.5 g
same,Mean graft survival,Mus musculus [7],10 days
same,Cytotoxicity,[8],>27.5 µg/mL
same,Body weight,Mus musculus [9],17.8 g
same,SI,Mus musculus [10],0.82
same,Mean graft survival,Mus musculus [11],12.5 days
same,Spleen weight,Mus musculus [12],4.1 g
same,Spleen weight,Mus musculus [13],5.2 g
same,Ratio,[14],>4885
same,graft survival,Mus musculus [15],1.02 days
same,Body weight,Mus musculus [16],1 g
same,graft survival,Mus musculus [17],1.28 days
same,graft survival,Mus musculus [18],1.09 days
same,Body weight,Mus musculus [19],0.7 g
same,Body weight,Mus musculus [20],16.3 g
same,Body weight,Mus musculus [21],16.8 g
same,Activity,Mus musculus [22],167%
same,Body weight,Mus musculus [23],18.5 g
same,Weight change,Mus musculus [24],2.9%
same,IC50,Mus musculus [25],5.63 ng/mL
same,SI,Mus musculus [26],1.15
same,Weight change,Mus musculus [27],1.8%
same,SI,Mus musculus [28],1.04
same,Body weight,Mus musculus [29],18.7 g
same,Mean graft survival,Mus musculus [30],10.7 days
